Reference: PubChem BioAssay (NCI)
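Exposure lasted 48 hours, with cells grown in 96-well plates and compounds tested at five concentrations. TGI: total growth inhibition.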

How the values were obtained:
Assay in all cases: growth of human tumour cells (NCI), 48 h
A498 renal = test system: A498 renal
HCT-15 colon = test system: HCT-15 colon
HOP-62 NSCLC = test system: HOP-62 NSCLC
HOP-92 NSCLC = test system: HOP-92 NSCLC
IGROV1 ovarian = test system: IGROV1 ovarian
KM12 colon = test system: KM12 colon
MCF7 breast = test system: MCF7 breast
NCI-H226 lung = test system: NCI-H226 lung
OVCAR-5 ovarian = test system: OVCAR-5 ovarian
OVCAR-8 ovarian = test system: OVCAR-8 ovarian
RXF 393 renal = test system: RXF 393 renal
SF-268 CNS = test system: SF-268 CNS
SK-MEL-2 melanoma = test system: SK-MEL-2 melanoma
SK-MEL-28 melanoma = test system: SK-MEL-28 melanoma
SK-MEL-5 melanoma = test system: SK-MEL-5 melanoma
U251 CNS = test system: U251 CNS
UO-31 renal = test system: UO-31 renal
TK-10 renal = test system: TK-10 renal
SR leukemia = test system: SR leukemia
MDA-MB-435 = test system: MDA-MB-435

Row | Structure (SMILES) | TGI (A498 renal) [µM] | TGI (HCT-15 colon) [µM] | TGI (HOP-62 NSCLC) [µM] | TGI (HOP-92 NSCLC) [µM] | TGI (IGROV1 ovarian) [µM] | TGI (KM12 colon) [µM] | TGI (MCF7 breast) [µM] | TGI (NCI-H226 lung) [µM] | TGI (OVCAR-5 ovarian) [µM] | TGI (OVCAR-8 ovarian) [µM] | TGI (RXF 393 renal) [µM] | TGI (SF-268 CNS) [µM] | TGI (SK-MEL-2 melanoma) [µM] | TGI (SK-MEL-28 melanoma) [µM] | TGI (SK-MEL-5 melanoma) [µM] | TGI (U251 CNS) [µM] | TGI (UO-31 renal) [µM] | TGI (TK-10 renal) [µM] | TGI (SR leukemia) [µM] | TGI (MDA-MB-435) [µM]
1 | COC1OCC(O)C(NC(=O)N(C)N=O)C1O (stereo unspecified) | > 100 | > 100 | > 100 | > 100 | > 100 | > 100 | > 100 | > 100 | > 100 | > 100 | > 100 | > 100 | > 100 | > 100 | > 100 | > 100 | > 100 | – | – | –
2 | O=c1cc(-c2ccccc2)[nH]c2ncccc12 | > 100 | – | > 100 | 7.54 | > 100 | 15.7 | > 100 | – | > 100 | 4.01 | – | > 100 | – | > 100 | > 60.6 | – | > 100 | > 100 | – | –
3 | CCC12CCCN(Cc3ccccc3)C1c1c(n(C)c3ccccc13)C(CO)C2 (stereo unspecified) | – | 78.1 | 73.6 | 110 | 218 | 89.4 | – | 104 | 75.6 | 186 | > 257 | > 257 | 107 | 150 | 76.9 | 134 | – | 246 | 105 | –
4 | CCOC(=O)c1nc2ccc(OC)cc2c2c1Cc1ccccc1-2 | – | > 100 | > 100 | – | > 100 | > 100 | – | > 100 | > 100 | > 100 | 71.6 | > 100 | > 100 | > 100 | > 100 | > 100 | > 100 | > 100 | > 100 | –
5 | O=C1C=C(Nc2ccccc2C(=O)CC(=O)C(=O)Nc2ccc(Cl)cc2)c2ccccc2C1=O | > 100 | 24.8 | 44.5 | > 100 | > 88.5 | 54.6 | – | > 56.6 | 35.6 | 37.4 | 45.9 | 57.5 | 34.3 | 35 | 15.4 | 68.2 | 65.6 | > 100 | > 100 | –
6 | CC1(C)OC[C@H](C(=N)OCc2ccccc2)O1 | > 100 | > 100 | > 100 | > 100 | > 100 | > 100 | – | > 100 | > 100 | > 100 | > 100 | > 100 | > 100 | > 100 | > 100 | > 100 | > 100 | > 100 | > 100 | –
7 | CC(=O)C1=C(C)O[C@@H]2O[C@H](COCc3ccccc3)[C@@H](OCc3ccccc3)[C@H](O)[C@@H]2S1 | 71 | 71.6 | 46.2 | 44.2 | 40.9 | 38.1 | – | 48.6 | 84.1 | 55.3 | 47.7 | 32 | 39.1 | 64 | 32.2 | 38.5 | 37.7 | 51.3 | 46.1 | 38
8 | Cc1ccc(Cc2cc(N3CCN(c4cccc(Cl)c4)CC3)nnc2C)cc1 | > 100 | > 100 | > 100 | – | – | > 100 | > 100 | – | > 100 | > 100 | > 100 | > 100 | > 100 | > 100 | 41.6 | > 100 | > 100 | > 100 | – | > 100
9 | CCCCCCSc1nc(N)nc2nc[nH]c12 | > 100 | > 100 | > 100 | 72.1 | > 100 | > 100 | > 100 | > 85.4 | > 100 | > 100 | > 93 | > 100 | > 100 | > 100 | > 62.5 | > 100 | 68.6 | – | – | –
10 | CN(C)CCNC(=O)c1cccc2ccc(-c3ccc(Br)cc3)nc12 | 5.49 | 12.5 | 6.09 | 8.43 | 13.2 | 15.5 | 13.8 | 4.82 | 10.2 | 4.76 | 13.1 | 19.1 | 9.25 | 13.2 | 2.92 | 12.2 | 3.99 | – | – | –
11 | Cc1ccccc1NC(=O)Cc1csc(N/N=C2\NC(=O)/C(=C/c3cccc([N+](=O)[O-])c3)S2)n1 | – | 29.3 | 92.5 | 38.1 | 34.3 | 34.2 | > 100 | 39.1 | 45.8 | > 100 | – | – | 71.1 | 55.3 | 64.8 | 53.8 | 25.8 | 36.9 | – | 39.5
12 | Cn1c(-c2ccc[se]2)ccc1-c1ccc(C=O)[se]1 | 3.01 | > 100 | 35.3 | > 82.1 | 0.487 | > 100 | – | 2.3 | – | 42.2 | 7.14 | 59.1 | > 100 | > 100 | > 100 | 25.4 | > 100 | 0.439 | > 100 | > 100
13 | CC(=O)c1ccccc1NC(=O)C(=O)C(C(=O)c1ccc2ccccc2c1)C1OC(=O)c2ccccc21 (stereo unspecified) | 43.9 | 40.1 | 28.4 | 41.1 | 52.6 | 52.2 | – | 7.86 | 52.9 | 94.8 | – | 51 | 24.9 | 32.5 | 24.4 | 40.7 | 29.1 | 92.4 | – | –
14 | CCOC(=O)c1c(NS(=O)(=O)c2ccc(C)cc2)sc2c1CCCC2 | > 100 | 42.1 | 60.2 | – | > 100 | 93.8 | > 100 | > 100 | > 100 | > 100 | – | > 100 | 54.8 | – | > 100 | – | 72.7 | > 100 | – | –
15 | O=c1[nH]c(=O)c2ncn(-c3ccc([N+](=O)[O-])cn3)c2[nH]1 | > 100 | > 100 | > 100 | > 100 | – | > 100 | > 100 | > 100 | > 100 | > 100 | > 100 | > 100 | > 100 | > 100 | > 100 | > 100 | > 100 | > 100 | – | > 100
16 | CC(C)OP(=S)(NC(=S)c1ccccc1)OC(C)C | > 100 | > 100 | – | > 100 | > 100 | > 100 | – | > 100 | > 100 | > 100 | – | > 100 | > 100 | > 100 | > 100 | > 100 | > 100 | > 100 | – | –
17 | Clc1cc(-c2ccccc2)nc(Nc2nc3ccccc3[nH]2)n1 | 98.3 | 22 | – | 5.25 | 33.2 | > 100 | – | > 100 | > 100 | 54.2 | 19.1 | 80.9 | – | – | > 100 | 30.7 | > 100 | > 100 | 10.5 | 83.4
18 | COc1ccc2nc3c([N+](=O)[O-])ccc(NCCN(C)C)c3c(N)c2c1 | 4.31 | 2.49 | 3.65 | 2.54 | 2.74 | 0.939 | 1.1 | 4.54 | 3.09 | 4.33 | 3.36 | 3.12 | 4.76 | 4.16 | 3.45 | 3.13 | 2.87 | 3.09 | 2.9 | –
19 | CC[C@@]1(O)C[C@H](OC2CC(N(C)C)C(O)C(C)O2)c2c(cc3c(c2O)C(=O)c2c(O)ccc(O)c2C3=O)[C@H]1C(=O)OC (stereo partly specified) | 0.239 | 0.976 | 0.672 | 1.35 | 1.35 | 1 | 0.996 | 0.455 | 0.836 | 0.643 | 0.258 | 0.68 | 0.354 | 0.462 | 0.461 | 1.23 | 1 | – | – | –
20 | C/C(=N\Nc1nc2cc(Cl)ccc2s1)c1ccccn1 | > 22.6 | > 79.9 | 11.1 | 15.4 | – | > 84.8 | – | > 100 | > 100 | > 40.4 | – | 34.1 | – | > 27.5 | 13.6 | 6.57 | 14.8 | > 100 | > 100 | > 42
21 | O=P(O)(O)c1ccc(-c2ccc(I)cc2)cc1 | – | > 100 | > 100 | – | > 100 | > 100 | > 100 | > 100 | > 100 | > 100 | > 100 | > 100 | > 100 | > 100 | > 100 | > 100 | > 100 | > 100 | > 100 | –
22 | Cc1cc(=O)oc2cc(OCCCOc3ccc4c(C)cc(=O)oc4c3)ccc12 | > 100 | > 100 | > 100 | – | > 100 | – | – | > 100 | – | > 100 | > 100 | > 100 | > 100 | > 100 | > 100 | > 100 | > 100 | > 100 | > 100 | –
23 | Nc1nc(Cl)cc(OCC2(CO)CCCC2)n1 | > 100 | > 100 | > 100 | > 100 | > 100 | – | > 100 | > 100 | > 100 | > 100 | > 100 | > 100 | – | > 100 | > 100 | > 100 | – | > 100 | – | > 100
24 | COc1ccc2c(c1)Oc1cc(O)ccc1[C@H]2c1ccccc1C(=O)NC(C)c1ccccc1 (stereo partly specified) | 30.8 | 35.5 | 44.6 | – | 31.5 | 36.5 | – | 38.8 | 29.4 | 36 | 42 | 45.8 | 82.2 | 34.7 | 29.2 | 29.4 | 25.5 | 50.4 | – | –
25 | O=C(Cc1nc2ccc(C(=O)c3ccccc3)cc2[nH]c1=O)C(=O)Nc1nc2ccccc2[nH]1 | – | > 100 | > 100 | 91.8 | > 100 | > 100 | – | – | – | > 100 | – | > 100 | – | > 100 | > 100 | – | > 100 | > 100 | > 100 | –
26 | CC(=O)C(=O)NC1/C=C(C)\C=C/C(O)C/C=C(C)\C=C/C(O)CC2OC(=O)C1(C)C(=O)C2C (stereo unspecified) | > 100 | > 100 | > 100 | > 100 | > 100 | > 100 | > 100 | > 100 | > 100 | > 100 | > 100 | > 100 | > 100 | > 100 | > 100 | > 100 | > 100 | – | – | –
27 | CN(C)CN1CSC(=S)N(CN(C)C)C1 | > 100 | > 100 | > 100 | > 100 | > 100 | > 100 | – | > 100 | > 100 | > 100 | > 100 | > 100 | 96.3 | > 100 | > 100 | > 100 | > 100 | > 100 | 55.2 | > 100
28 | CC1=NN(C(=O)Cc2ccccc2)C(=O)/C1=C\c1ccc([N+](=O)[O-])cc1 | > 100 | > 100 | > 100 | 9.82 | > 100 | > 100 | – | > 100 | > 100 | > 100 | > 100 | > 100 | > 100 | > 100 | > 100 | > 100 | > 100 | > 100 | – | –
